Reference: patent publication US11173116B2, “Drug delivery system kit comprising an enzyme” (INDUSTRY-ACADEMIC COOPERATION FOUNDATION, YONSEI UNIVERSITY, priority 2018, dated 2021)
Structures can show the parent of a compound that is named as a salt.

Test system: HeLa cells
Assay: Cytotoxicity test, MTT assay
Assay type: cell-based
Details: amount of 1 μg
Protocol: HeLa cells were cultured for 2 to 3 days in a 100 mm culture dish (SPL, Pocheon-si, Korea) in a 5% CO2 incubator. When 95% of the cells were grown, the cells were detached by trypsin-EDTA treatment. Thereafter, for a toxicity test, the cells were inoculated at a density of 7,000 cells/well in a 24-well plate. For cell attachment, the cells were cultured for one day, and for cytotoxicity and anticancer assays, the enzyme, DOX, and DOX-free hollow drug delivery system in the culture medium were used to treat the cells separately. After the materials were cultured for one day, the cytotoxicity was measured using a 3-(4,5-dimethylthiazol-2-yl)-2,5-diphenyltetrazolium bromide (MTT) assay. An MTT solution (5 mg/mL) in PBS was used to treat the cells for 2 hours in an incubator, the cells were dissolved in DMSO, and the absorbance at a wavelength of 540 nm was measured using a plate reader (SpectraMax 340 PC; Molecular Devices, Sunnyvale, Calif., USA).
The anticancer effect of the DOX-conjugated drug delivery system was investigated through a cytotoxicity test. In this case, 1 μg of the DOX-conjugated hollow drug delivery systems of Preparation Examples 4 and 5 were used. A cell culture medium was composed of 90% Dulbecco's Modified Eagle Medium, 10% fetal bovine serum, and 1% penicillin-streptomycin-glutamine. […]

## COc1cccc2c1C(=O)c1c(O)c3c(c(O)c1C2=O)C[C@@](O)(C(=O)CO)C[C@@H]3O[C@H]1C[C@H](N)[C@H](O)[C@H](C)O1 [DOX, doxorubicin hydrochloride]
  cytotoxicity: very high toxicity
